Values of other authors as cited in US20100151008A1, “Preparations and Methods for Textile and or Fiber Surface Finishing, Surface Finished Articles Prepared Thereby, and Uses Therefor” (Cognis IP Management GmbH, priority 2003, published 2010).

## CC(C)CCC[C@@H](C)[C@H]1CC[C@H]2[C@@H]3CC=C4C[C@@H](O)CC[C@]4(C)[C@H]3CC[C@]12C [cholesterol, 5-cholesten-3b-ol]
alcohol
  solubility in alcohol: only sparingly when cold, but more readily after heating
ether, benzene and petroleum ether
  solubility in ether, benzene and petroleum ether: soluble
water
  solubility in water: virtually insoluble
